Laboratory results from paper PMC6013247, “Preclinical characterization of INCB053914, a novel pan-PIM kinase inhibitor, alone and in combination with anticancer agents, in models of hematologic malignancies” (PLoS ONE, 2018).

What was measured:
PIM1 [1] = target: T1, PIM1 (Homo sapiens, UniProt P11309); test: Kinase selectivity panel; type: biochemical; settings: [ATP] = 1 mM
BRAF = BRAF (Homo sapiens, UniProt P15056); test: Kinase selectivity panel; type: biochemical; settings: [ATP] = 1 mM
GSK3B = GSK3B (Homo sapiens, UniProt P49841); test: Kinase selectivity panel; type: biochemical; settings: [ATP] = 1 mM
[2] = tested on: human KG-1 AML xenografts; test: Tumor growth in KG-1 (AML) xenograft, combination with cytarabine; type: in vivo, mouse; settings: KG-1 (AML) tumors
Method: Female immune compromised (severe combined immunodeficiency [SCID]) mice (5–9 weeks of age; Charles River Laboratories, Wilmington, Massachusetts) were inoculated with MOLM-16, KG-1, or KMS-12-BM cells. A cell suspension in Dulbecco’s phosphate-buffered saline (DPBS) (1 × 10^8 cells/ml) was mixed 1:1 (v/v) with matrigel, and 200 μl was injected subcutaneously into the flank of each mouse. […] The treatment of tumor-bearing mice started 7 to 24 days after tumor inoculation for efficacy studies and approximately 14 to 27 days after tumor inoculation for pharmacodynamic studies.
Synergistic effects of INCB053914 in combination with INCB050465, cytarabine, or itacitinib, were assessed based on the Bliss independence model [56, 57]. In this model, the expected additive effect, with the assumption that concentration dependent effects of 2 drugs (A and B) are independent, is given by the equation EIND = EA + EB – EA •EB, where 0 ≤ EIND ≤ 1; EA and EB are the magnitudes of effects of A and B alone at given concentrations.
The interaction between effects of A and B can be described by the equation Combination Index = EIND/ EOBS, where EOBS is the observed combined effect of A + B expressed as a probability (0 ≤ EOBS ≤ 1). […]

PKCD = PKCD (Homo sapiens, UniProt Q05655); test: Kinase selectivity panel; type: biochemical; settings: [ATP] = 1 mM
CLK3 = CLK3 (Homo sapiens, UniProt P49761); test: Kinase selectivity panel; type: biochemical; settings: [ATP] = 1 mM
TIE2 = TIE2 (Homo sapiens, UniProt Q02763); test: Kinase selectivity panel; type: biochemical; settings: [ATP] = 1 mM
SYK = SYK (Homo sapiens, UniProt P43405); test: Kinase selectivity panel; type: biochemical; settings: [ATP] = 1 mM
[3] = tested on: pBAD, pSTAT3 and MYC in INA-6 (MM) tumors; test: pBAD, pSTAT3 and MYC levels in INA-6 (MM) tumors; type: in vivo, mouse; settings: INA-6 (MM) tumors in mice
Method: The PI3Kδ inhibitor INCB050465 (10 mg/kg once a day orally) was evaluated in combination with INCB053914 (30 mg/kg once a day orally) in mice bearing Pfeiffer (DLBCL) xenografts, a model sensitive to PI3Kδ inhibition (eight mice/group). Cytarabine was administered via intraperitoneal injection at a standard dose of 20 mg/kg twice a week, in combination with oral INCB053914 at a submaximally efficacious dose of 20 mg/kg twice a day for 12 days in mice bearing human KG-1 AML xenografts, a cytarabine-sensitive model (eight mice/group). The oral JAK1-selective inhibitor itacitinib (60 mg/kg twice a day orally) was assessed in combination with INCB053914 (100 mg/kg twice a day orally) after 8 days of administration to SCID mice bearing INA-6 (MM) xenografts (eight mice/group), a model sensitive to JAK inhibition.

TRKA = TRKA (Homo sapiens, UniProt P04629); test: Kinase selectivity panel; type: biochemical; settings: [ATP] = 1 mM
PIM2 = PIM2 (Homo sapiens, UniProt Q9P1W9); test: Kinase selectivity panel; type: biochemical; settings: [ATP] = 1 mM
PHKG2 = PHKG2 (Homo sapiens, UniProt P15735); test: Kinase selectivity panel; type: biochemical; settings: [ATP] = 1 mM
MSSK1 = MSSK1 (Homo sapiens, UniProt Q9UPE1); test: Kinase selectivity panel; type: biochemical; settings: [ATP] = 1 mM
[4] = tested on: PIM2 expression and 4E-BP1 phosphorylation in whole blood samples; test: Pharmacodynamic assessment of blood samples from patients with AML in the phase 1/2 trial; type: in vivo, human; settings: patients with AML receiving INCB053914 100 mg twice a day; blood 0 to 6 hours post-dose
PIM1 [5] = target: T1, PIM1; test: PIM1 AlphaScreen kinase assay; type: biochemical; settings: 1 mM ATP; read-out: Mean (SD) IC50
Method: The activity of INCB053914 against the PIM1 and PIM3 kinases was measured using AlphaScreen® assays (PerkinElmer, Inc., Shelton, Connecticut), and against PIM2 kinase using a time-resolved fluorescence resonance energy transfer assay (see Supporting Information, S1 File)
AlphaScreen assay. Reactions (20 μl) were carried out in white 384-well polystyrene plates (Greiner Bio-One, Kremsmünster, Austria) dotted with 0.8 μl of the compound in dimethylsulfoxide in the assay buffer (50 mM Tris, pH 7.5, 0.01% Tween-20, 5 mM MgCl2, 0.01% bovine serum albumin [BSA], 5 mM dithiothreitol) containing 0.05 μM Biotin-labeled Bcl-2–associated death promoter protein peptide substrate (AnaSpec, Fremont, California), 1 mM ATP, and 2.5 pM PIM1 (Invitrogen, Thermo Fisher Scientific, Waltham, Massachusetts), or 1.25 pM PIM3 (Millipore, Billerica, Massachusetts) enzyme. […] After the reactions were stopped, the plates were incubated for 1 hour in the dark at room temperature and then read on a PHERAstar FS plate reader (BMG Labtech, Cary, North Carolina) under reduced light.

CAMK2D = CAMK2D (Homo sapiens, UniProt Q13557); test: Kinase selectivity panel; type: biochemical; settings: [ATP] = 1 mM
MINK = MINK (Homo sapiens, UniProt Q8N4C8); test: Kinase selectivity panel; type: biochemical; settings: [ATP] = 1 mM
PDGFR BETA = PDGFR BETA (Homo sapiens, UniProt P09619); test: Kinase selectivity panel; type: biochemical; settings: [ATP] = 1 mM
[6] = tested on: PIM kinase substrates (p70S6K/S6 and 4E-BP1) in MOLM-16, Pfeiffer and KMS-12-PE/BM cell lines; test: Western blot of PIM kinase substrate phosphorylation in cell lines; type: cell-based; settings: MOLM-16 (AML), Pfeiffer (DLBCL), KMS-12-PE/BM (MM); 0 to 1 μM, 2 hours
Method: Inhibition of PIM kinase substrate phosphorylation (BAD, S6, p70S6K, and 4E-BP1) and the upregulation of PIM2 (chosen because of its reduced susceptibility to in vitro kinase inhibition) by INCB053914 was determined by incubating 10^6 MOLM-16 (AML), Pfeiffer (DLBCL), KMS-12-PE (MM), and KMS-12-BM (MM) cells with INCB053914 at concentrations ranging from 0 (phosphate-buffered saline [PBS]) to 1 μM for 2 hours in Roswell Park Memorial Institute (RPMI) medium. Cells were centrifuged at 1,000 rpm for 10 minutes and lysed with 1× lysis buffer (Cell Signaling Technology, Danvers, Massachusetts) supplemented with 1 mM phenylmethane sulfonyl fluoride (Sigma-Aldrich, St Louis, Missouri) and proteinase inhibitor cocktail (CalBiochem, San Diego, California). Cell lysates were stored at –80°C before determining phosphoprotein and PIM2 levels by Western blotting using anti-pBAD (S112), anti-p4E-BP1 (S65), pp70S6K (T389), pS6 (S285/S286), and anti-PIM2 antibodies (Cell Signaling Technology).

T1 sequence (P11309 whole entry): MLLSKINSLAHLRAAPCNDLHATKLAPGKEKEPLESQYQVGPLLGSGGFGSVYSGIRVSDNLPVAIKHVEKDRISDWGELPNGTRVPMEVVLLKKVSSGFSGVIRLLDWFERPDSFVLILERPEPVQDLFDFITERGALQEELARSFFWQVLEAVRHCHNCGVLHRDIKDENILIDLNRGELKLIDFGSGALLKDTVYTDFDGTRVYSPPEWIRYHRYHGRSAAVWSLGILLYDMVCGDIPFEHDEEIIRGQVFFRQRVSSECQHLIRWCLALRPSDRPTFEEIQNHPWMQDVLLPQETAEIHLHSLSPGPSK
Sequence of MSSK1 (Q9UPE1 whole entry): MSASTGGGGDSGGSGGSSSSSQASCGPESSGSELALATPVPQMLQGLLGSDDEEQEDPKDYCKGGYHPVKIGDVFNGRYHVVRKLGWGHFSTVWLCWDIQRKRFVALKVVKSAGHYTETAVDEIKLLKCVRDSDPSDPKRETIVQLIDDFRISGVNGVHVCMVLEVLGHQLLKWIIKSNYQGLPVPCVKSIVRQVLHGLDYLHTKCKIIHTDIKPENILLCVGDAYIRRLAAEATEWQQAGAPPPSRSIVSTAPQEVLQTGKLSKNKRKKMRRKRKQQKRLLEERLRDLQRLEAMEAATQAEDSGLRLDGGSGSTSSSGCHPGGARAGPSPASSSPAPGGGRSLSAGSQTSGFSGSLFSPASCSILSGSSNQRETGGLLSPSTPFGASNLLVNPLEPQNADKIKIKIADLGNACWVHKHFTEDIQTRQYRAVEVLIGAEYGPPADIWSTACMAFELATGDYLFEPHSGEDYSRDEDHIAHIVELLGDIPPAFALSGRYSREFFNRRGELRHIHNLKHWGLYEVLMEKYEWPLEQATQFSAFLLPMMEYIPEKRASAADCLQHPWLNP
Sequence of PHKG2 (P15735 whole entry): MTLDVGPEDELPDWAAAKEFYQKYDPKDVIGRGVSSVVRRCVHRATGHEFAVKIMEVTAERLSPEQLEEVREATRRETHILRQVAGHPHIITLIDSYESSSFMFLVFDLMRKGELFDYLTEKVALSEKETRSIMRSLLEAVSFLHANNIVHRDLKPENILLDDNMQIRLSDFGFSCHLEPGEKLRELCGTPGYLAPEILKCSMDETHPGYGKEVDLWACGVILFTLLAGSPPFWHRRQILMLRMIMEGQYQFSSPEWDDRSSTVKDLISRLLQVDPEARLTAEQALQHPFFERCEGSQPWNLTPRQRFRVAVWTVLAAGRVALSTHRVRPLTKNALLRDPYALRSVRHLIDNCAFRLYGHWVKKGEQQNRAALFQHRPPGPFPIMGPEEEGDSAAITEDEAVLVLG
Sequence of TIE2 (Q02763 23-1124, species assumed): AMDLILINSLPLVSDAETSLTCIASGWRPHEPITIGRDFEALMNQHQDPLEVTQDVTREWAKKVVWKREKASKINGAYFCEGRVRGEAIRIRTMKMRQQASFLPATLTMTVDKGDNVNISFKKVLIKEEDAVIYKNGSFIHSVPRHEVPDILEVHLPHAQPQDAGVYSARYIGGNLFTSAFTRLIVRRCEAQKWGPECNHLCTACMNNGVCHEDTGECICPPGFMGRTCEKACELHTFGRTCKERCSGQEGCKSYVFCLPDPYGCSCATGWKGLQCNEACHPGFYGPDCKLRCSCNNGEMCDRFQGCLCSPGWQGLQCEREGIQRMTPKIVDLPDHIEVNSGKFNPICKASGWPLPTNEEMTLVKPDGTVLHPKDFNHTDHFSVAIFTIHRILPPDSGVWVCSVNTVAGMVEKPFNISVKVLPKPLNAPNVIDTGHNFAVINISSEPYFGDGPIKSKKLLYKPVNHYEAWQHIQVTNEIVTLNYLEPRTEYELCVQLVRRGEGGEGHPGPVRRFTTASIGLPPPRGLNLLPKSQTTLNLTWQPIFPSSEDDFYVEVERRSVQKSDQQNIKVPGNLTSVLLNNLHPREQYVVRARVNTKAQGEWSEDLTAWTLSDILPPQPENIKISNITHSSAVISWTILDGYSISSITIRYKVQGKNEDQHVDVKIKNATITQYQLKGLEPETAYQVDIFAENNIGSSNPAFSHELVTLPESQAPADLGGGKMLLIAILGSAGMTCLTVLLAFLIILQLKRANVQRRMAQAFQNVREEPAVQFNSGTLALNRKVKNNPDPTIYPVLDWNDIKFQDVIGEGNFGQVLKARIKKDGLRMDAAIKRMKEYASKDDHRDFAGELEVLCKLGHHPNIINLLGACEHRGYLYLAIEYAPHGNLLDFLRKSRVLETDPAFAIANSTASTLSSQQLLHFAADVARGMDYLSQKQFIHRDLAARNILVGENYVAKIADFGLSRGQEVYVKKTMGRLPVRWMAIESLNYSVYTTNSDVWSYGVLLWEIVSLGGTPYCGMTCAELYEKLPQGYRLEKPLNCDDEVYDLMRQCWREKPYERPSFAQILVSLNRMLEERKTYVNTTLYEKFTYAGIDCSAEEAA
Sequence of TRKA (P04629 33-796, species assumed): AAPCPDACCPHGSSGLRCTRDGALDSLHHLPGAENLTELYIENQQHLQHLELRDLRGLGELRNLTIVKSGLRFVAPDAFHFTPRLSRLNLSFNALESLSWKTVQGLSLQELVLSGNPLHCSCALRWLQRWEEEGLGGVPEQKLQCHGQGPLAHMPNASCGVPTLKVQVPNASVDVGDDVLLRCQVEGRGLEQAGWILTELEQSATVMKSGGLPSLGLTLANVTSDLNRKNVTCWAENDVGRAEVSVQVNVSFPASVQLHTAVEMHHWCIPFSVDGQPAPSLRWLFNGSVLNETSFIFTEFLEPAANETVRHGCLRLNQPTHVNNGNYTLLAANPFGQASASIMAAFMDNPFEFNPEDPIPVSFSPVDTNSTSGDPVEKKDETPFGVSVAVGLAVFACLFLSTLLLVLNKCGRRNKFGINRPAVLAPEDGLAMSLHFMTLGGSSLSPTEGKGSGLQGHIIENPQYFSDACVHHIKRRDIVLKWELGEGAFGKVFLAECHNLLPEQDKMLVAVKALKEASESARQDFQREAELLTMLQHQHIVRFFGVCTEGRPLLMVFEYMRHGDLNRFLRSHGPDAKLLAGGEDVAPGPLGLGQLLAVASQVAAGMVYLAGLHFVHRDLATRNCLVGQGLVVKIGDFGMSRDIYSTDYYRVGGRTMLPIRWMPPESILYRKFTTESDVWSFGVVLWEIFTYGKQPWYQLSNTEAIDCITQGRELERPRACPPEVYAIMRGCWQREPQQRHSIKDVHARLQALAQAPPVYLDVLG
Sequence of PDGFR BETA (P09619 33-1106): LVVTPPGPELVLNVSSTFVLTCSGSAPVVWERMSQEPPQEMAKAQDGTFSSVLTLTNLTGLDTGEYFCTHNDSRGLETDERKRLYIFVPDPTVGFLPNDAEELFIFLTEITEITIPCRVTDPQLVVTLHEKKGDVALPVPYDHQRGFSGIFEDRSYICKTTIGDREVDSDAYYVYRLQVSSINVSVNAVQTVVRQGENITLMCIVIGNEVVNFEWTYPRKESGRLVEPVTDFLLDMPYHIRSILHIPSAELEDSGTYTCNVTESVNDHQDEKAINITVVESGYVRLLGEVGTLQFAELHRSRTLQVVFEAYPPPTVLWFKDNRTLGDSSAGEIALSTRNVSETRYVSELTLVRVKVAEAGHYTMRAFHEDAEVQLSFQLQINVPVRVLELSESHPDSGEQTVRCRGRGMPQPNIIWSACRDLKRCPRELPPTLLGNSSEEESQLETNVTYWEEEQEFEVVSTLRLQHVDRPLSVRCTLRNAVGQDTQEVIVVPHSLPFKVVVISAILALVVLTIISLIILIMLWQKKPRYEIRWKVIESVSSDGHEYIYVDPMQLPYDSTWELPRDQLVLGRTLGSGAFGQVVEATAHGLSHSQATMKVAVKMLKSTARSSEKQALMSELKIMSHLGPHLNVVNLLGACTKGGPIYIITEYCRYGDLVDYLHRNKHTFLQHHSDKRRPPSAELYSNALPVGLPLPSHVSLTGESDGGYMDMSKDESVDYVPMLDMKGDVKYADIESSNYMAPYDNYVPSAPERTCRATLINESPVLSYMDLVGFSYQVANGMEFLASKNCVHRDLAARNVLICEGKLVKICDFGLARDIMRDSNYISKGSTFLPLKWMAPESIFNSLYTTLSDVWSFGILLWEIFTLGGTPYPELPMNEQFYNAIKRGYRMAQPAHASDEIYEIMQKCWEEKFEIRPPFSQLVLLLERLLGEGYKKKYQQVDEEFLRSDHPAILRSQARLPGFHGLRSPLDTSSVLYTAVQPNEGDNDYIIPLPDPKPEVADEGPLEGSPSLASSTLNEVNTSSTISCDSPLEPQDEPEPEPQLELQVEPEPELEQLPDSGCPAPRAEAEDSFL
Sequence of GSK3B (P49841 whole entry): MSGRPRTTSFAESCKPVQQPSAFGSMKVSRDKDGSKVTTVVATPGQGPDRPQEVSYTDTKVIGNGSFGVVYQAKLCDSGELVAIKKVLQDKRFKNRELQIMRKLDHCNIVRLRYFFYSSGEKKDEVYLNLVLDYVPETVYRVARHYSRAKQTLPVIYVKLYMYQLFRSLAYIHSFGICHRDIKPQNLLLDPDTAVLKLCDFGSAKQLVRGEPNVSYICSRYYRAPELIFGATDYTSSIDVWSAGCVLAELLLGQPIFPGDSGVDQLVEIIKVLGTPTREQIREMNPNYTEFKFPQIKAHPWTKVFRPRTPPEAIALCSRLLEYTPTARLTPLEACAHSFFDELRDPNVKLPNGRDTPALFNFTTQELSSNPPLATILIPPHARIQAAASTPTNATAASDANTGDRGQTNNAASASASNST
Sequence of PIM2 (Q9P1W9 whole entry): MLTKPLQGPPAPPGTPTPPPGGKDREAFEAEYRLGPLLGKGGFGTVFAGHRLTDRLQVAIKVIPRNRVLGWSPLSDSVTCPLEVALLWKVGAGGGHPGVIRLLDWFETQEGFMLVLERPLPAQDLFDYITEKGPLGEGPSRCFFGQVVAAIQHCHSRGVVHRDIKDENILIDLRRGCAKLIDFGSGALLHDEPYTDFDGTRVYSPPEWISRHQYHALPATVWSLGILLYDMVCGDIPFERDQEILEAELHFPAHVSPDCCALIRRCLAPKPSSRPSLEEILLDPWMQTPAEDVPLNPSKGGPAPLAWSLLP

Question: With `C[C@H]1CN(c2c(NC(=O)c3ccc(F)c(-c4c(F)cccc4F)n3)cnc3c2CC[C@H]3O)C[C@@H](N)[C@@H]1O.O=P(O)(O)O` [INCB053914, N-((R)-4-((3R,4R,5S)-3-amino-4-hydroxy-5-methylpiperidin-1-yl)-7-hydroxy-6,7-dihydro-5H-cyclopenta[b]pyridin-3-yl)-6-(2,6-difluorophenyl)-5-fluoropicolinamide phosphate] as the compound, how does the IC50 (PIM1 [1]) read?
Answer: < 0.012 µM

Question: And the IC50 (BRAF)?
Answer: > 20 µM

Question: And the IC50 (GSK3B)?
Answer: > 20 µM

Question: And the “tumor growth, single agent” value [2]?
Answer: inhibited

Question: And the IC50 (PKCD)?
Answer: > 20 µM

Question: And the IC50 (CLK3)?
Answer: > 20 µM

Question: And the IC50 (TIE2)?
Answer: > 20 µM

Question: And the IC50 (SYK)?
Answer: > 20 µM

Question: What about the MYC levels [3] of the same compound?
Answer: decreased MYC levels

Question: What about the “level of pBAD” value [3] of the same compound?
Answer: decrease

Question: What about the IC50 (TRKA) of the same compound?
Answer: > 20 µM

Question: What about the IC50 (PIM2) of the same compound?
Answer: 0.015 µM

Question: What about the IC50 (PHKG2) of the same compound?
Answer: > 20 µM

Question: What about the IC50 (MSSK1) of the same compound?
Answer: > 20 µM

Question: What about the 4E-BP1 phosphorylation [4] of the same compound?
Answer: a decrease in 4E-BP1 phosphorylation

Question: And the PIM2 expression levels [4]?
Answer: an increase in PIM2 expression levels

Question: What about the IC50 (PIM1 [5]) of the same compound?
Answer: 0.00024 µM

Question: What about the IC50 (CAMK2D) of the same compound?
Answer: > 20 µM

Question: And the IC50 (MINK)?
Answer: > 20 µM

Question: And the IC50 (PDGFR BETA)?
Answer: > 20 µM

Question: What about the “phosphorylation of downstream PIM kinase substrates (p70S6K/S6 and 4E-BP1)” value [6] of the same compound?
Answer: inhibited the phosphorylation of downstream PIM kinase substrates (p70S6K/S6 and 4E-BP1) in a dose-dependent manner
